Reference: US20080312292A1, “Antipruritics” (priority 2002, published 2008)
Like-named read-outs stand apart in the source and are kept apart here. Marks after values point to notes of the source that are not given here.

Tests used:
human CB1R = target: T1, human CB1R (Homo sapiens, UniProt P21554); experiment: cell-based; details: CHO cells expressing human CB1R
T1 construct: expressed in transfected cells; host or cells: CHO cells

human CB2R = target: T2, human CB2R (Homo sapiens, UniProt P34972); experiment: Cannabinoid receptor-mediated suppression of forskolin-stimulated cAMP synthesis, CB2R; format: cell-based
T2 construct: expressed in transfected cells; host or cells: CHO cells

mouse CB2 receptor = target: T3, mouse CB2 receptor (Mus musculus, UniProt P47936); experiment: Binding inhibitory activity to mouse cannabinoid receptors, spleen membrane fraction; design: species or system C57BL/6 J mice
T3 construct: The membrane fractions of mouse brain and spleen that abundantly express CB1 and CB2 receptor, respectively; from tissue; host or cells: mouse spleen membrane fraction (C57BL/6 J)

mouse CB1 receptor = target: T4, mouse CB1 receptor (Mus musculus, UniProt P47746); experiment: Binding inhibitory activity to mouse cannabinoid receptors, brain membrane fraction; design: species or system C57BL/6 J mice
T4 construct: The membrane fractions of mouse brain and spleen that abundantly express CB1 and CB2 receptor, respectively; from tissue; host or cells: mouse brain membrane fraction (C57BL/6 J)

[1] = system: compound 48/80-induced pruritus; experiment: Inhibitory effect on compound 48/80-induced pruritus in ICR strain mice; details: for Antipruritic Effect (%): ICR mice, compound 48/80-induced scratching
[2] = target: T5, Human cannabinoid receptor CB1R (Homo sapiens, UniProt P21554); experiment: Human cannabinoid receptor binding inhibition, [3H]CP55940, CB1R; details: membranes of CB1R-expressing CHO cells, [3H]CP55940 0.5 nM; read-out: Ki CB1 receptor
T5 construct: expressed in transfected cells; host or cells: CHO cells
Procedure: (§1) The crude membrane fractions as Human cannabinoid receptor were then prepared from the CB1R or CB2R-expressing CHO cells. Receptor binding assay was performed by incubating the membranes with each test compound and 38,000 dpm [^3H]CP55940 (at a final concentration of 0.5 nM: NEN Life Science Products) in the assay buffer (50 mM Tris-HCl; 1 mM EDTA, 3 mM MgCl2, pH 7.4) containing 0.5% bovine serum albumin (BSA) for 2 hr at 25° C. The incubation mixture was filtered through 1% polyethylenimine (PEI)-treated GF/C glass filter and washed with 50 mM Tris-HCl (pH 7.4) containing 0.1% BSA. The radioactivity was then counted with a liquid scintillation counter. […] Ki value of test compound is calculated by obtained IC50 value and Kd value of [^3H]CP55940.

[3] = target: T6, Human cannabinoid receptor CB2R (Homo sapiens, UniProt P34972); experiment: Human cannabinoid receptor binding inhibition, [3H]CP55940, CB2R; details: membranes of CB2R-expressing CHO cells, [3H]CP55940 0.5 nM; read-out: Ki CB2 receptor
T6 construct: expressed in transfected cells; host or cells: CHO cells
Procedure: as §1

[4] = forskolin-stimulated cAMP synthesis, read-out: CB1 receptor IC50
[5] = read-out: cAMP Inhibition: IC50 CB1
[6] = CHO cells expressing human CB2R, read-out: cAMP Inhibition: IC50 CB2
[7] = mouse spleen membrane fraction, read-out: Binding Assay: Ki Spleen (CB2)
[8] = mouse brain membrane fraction, read-out: Binding Assay: Ki Brain (CB1)
[9] = CHO cells expressing human CB2R, forskolin-stimulated cAMP synthesis, read-out: CB2 receptor IC50

T1 sequence (P21554 whole entry): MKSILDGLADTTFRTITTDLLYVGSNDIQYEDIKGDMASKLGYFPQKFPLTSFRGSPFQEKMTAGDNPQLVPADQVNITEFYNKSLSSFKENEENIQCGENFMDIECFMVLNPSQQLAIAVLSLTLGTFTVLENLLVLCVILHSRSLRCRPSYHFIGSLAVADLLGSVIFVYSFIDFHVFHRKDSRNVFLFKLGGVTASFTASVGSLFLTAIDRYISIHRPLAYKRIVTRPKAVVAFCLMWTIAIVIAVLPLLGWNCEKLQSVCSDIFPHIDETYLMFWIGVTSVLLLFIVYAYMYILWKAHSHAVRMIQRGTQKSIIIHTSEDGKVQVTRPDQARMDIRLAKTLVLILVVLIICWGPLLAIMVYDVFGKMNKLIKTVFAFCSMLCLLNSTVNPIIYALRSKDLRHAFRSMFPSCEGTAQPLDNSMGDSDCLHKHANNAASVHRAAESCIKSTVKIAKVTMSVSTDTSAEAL
T5 sequence (P21554 whole entry): as above
T4 sequence (P47746 whole entry): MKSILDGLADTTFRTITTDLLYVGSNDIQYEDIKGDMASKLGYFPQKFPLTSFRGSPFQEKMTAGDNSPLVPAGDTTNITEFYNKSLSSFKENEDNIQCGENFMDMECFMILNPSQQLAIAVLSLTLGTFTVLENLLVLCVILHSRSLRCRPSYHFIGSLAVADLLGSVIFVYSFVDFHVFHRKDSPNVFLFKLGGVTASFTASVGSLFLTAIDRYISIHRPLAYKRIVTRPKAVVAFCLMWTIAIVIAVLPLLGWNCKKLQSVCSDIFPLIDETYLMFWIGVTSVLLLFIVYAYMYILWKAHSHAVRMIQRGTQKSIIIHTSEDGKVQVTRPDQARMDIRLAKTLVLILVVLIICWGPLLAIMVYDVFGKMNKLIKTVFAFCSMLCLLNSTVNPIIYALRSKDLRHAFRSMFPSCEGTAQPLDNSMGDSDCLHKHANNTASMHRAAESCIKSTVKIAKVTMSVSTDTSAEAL
T3 sequence (P47936 whole entry): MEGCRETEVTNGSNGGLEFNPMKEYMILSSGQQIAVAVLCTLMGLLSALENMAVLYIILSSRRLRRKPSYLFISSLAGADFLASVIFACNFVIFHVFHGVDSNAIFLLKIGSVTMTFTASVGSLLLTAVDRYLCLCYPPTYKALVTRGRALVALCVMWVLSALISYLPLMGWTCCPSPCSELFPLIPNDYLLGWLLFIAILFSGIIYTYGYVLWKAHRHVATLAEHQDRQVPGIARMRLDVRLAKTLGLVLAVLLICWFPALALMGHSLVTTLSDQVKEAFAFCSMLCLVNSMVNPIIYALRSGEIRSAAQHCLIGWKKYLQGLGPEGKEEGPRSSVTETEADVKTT
T2 sequence (P34972 whole entry): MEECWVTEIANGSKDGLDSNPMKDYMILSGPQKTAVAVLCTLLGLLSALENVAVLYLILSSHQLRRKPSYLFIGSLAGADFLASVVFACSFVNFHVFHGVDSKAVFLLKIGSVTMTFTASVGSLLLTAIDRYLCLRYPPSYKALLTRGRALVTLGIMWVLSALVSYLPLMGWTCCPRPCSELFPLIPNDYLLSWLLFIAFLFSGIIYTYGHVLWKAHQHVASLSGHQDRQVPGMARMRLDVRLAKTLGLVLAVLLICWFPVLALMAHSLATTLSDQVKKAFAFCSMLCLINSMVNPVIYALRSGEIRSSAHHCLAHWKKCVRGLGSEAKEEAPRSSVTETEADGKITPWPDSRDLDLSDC
T6 sequence (P34972 whole entry): as above

CCCCn1c2c(cc(C(=O)N[C@H](C)C3CCCCC3)c1=O)CCCCCC2 [Compound 10-050]
IC50 (human CB1R; [4]): 2 nM

COc1ccccc1N=C1SCC(C)(C)CN1C(=S)SC [Compound I-60]
melting point: 128 to 130 °C

CCCCn1c2c(cc(C(=O)NC(=O)c3c(F)cccc3F)c1=O)CCCCCC2 [Compound 10-045]
IC50 (human CB1R; [4]): 1.2 nM

CCCCn1c2c(cc(C(=O)Nc3ccccc3C(F)(F)F)c1=O)CCCCCC2 [Compound 10-103]
IC50 (human CB1R; [4]): 6.3 nM

CSC(=S)N1CC2(CCCCC2)CSC1=Nc1ccccc1C(C)C [Compound I-270]
IC50 (human CB1R; [5]): 68.7 nM | IC50 (human CB2R; [6]): 7.9 nM | Ki (mouse CB2 receptor; [7]): 1.2 nM | Ki (mouse CB1 receptor; [8]): 80 nM | Antipruritic Effect (%) ([1]; 100 mg/kg (p.o.)): 98** %

COCCn1c2c(cc(C(=O)NCCc3ccccc3)c1=O)CCCCCC2 [Compound 4-302]
Ki [2]: > 5000 nM | Ki [3]: 10 nM

CCCCn1c2c(cc(C(=O)N[C@@H](CC)c3ccccc3)c1=O)CCCCCC2 [Compound 10-059]
IC50 (human CB1R; [4]): 6.1 nM

Cc1c(C)c(C)n(CC2CCCCC2)c(=O)c1C(=O)NCc1ccccc1 [Compound 3-109]
IC50 (human CB1R; [4]): 2.7 nM

CCCCn1c2c(cc(C(=O)NCc3ccccc3)c1=O)CCCC2 [Compound 4-001]
Ki [2]: 2850 nM | IC50 (human CB2R): 64.2 nM | Ki [3]: 28 nM

CCCCn1c2c(cc(C(=O)NCCc3ccccc3)c1=O)CCCCCC2 [Compound 4-102]
Ki [2]: 908 nM | IC50 (human CB2R): 1.7 nM | Ki [3]: 1.6 nM

CCCCCc1cc(O)c2c(c1)OC(C)(C)[C@@H]1CCC(C)=C[C@@H]21 [Δ^9-tetrahydrocannabinol, delta-9-tetrahydrocannabinol, reference compound]
Ki (mouse CB2 receptor; [7]): 9.2 nM | Antipruritic Effect (%) ([1]; 10 mg/kg (i.p.)): 98**# % | inhibitory effect on compound 48/80-induced pruritus (number of scratching vs vehicle group) ([1]; female ICR mice, oral administration once, scratching counted for 30 min): inhibited compound 48/80-induced pruritus

CSC(=O)N1CC(C)(C)CSC1=Nc1cccc(C(C)C)c1 [Compound I-52]
melting point: 88 to 90 °C

CCCCn1c(C)c(C)cc(NC(=O)c2ccccc2C)c1=O [Compound 5-006]
Ki [3]: 14 nM

CCCCn1c(-c2ccccc2)c(C)cc(C(=O)NC(C)(C)c2ccccc2)c1=O [Compound 13-030]
IC50 (human CB1R; [4]): 0.7 nM

CCCCn1c2c(cc(C(=O)NC(C)(C)c3ccccc3)c1=O)COCC2 [Compound 13-044]
IC50 (human CB1R; [4]): 1.8 nM

CCCCn1c(C)c(C)cc(NC(=O)c2ccccc2Cl)c1=O [Compound 5-005]
Ki [3]: 16 nM

Cc1cc(C(=O)NC2CCCc3ccccc32)c(=O)n(CC2CCCCC2)c1C (stereo not shown) [Compound 11-011]
IC50 (human CB1R; [4]): 0.6 nM

CCCCn1c(C)c(C)cc(C(=O)NCCc2ccccc2)c1=O [Compound 3-010]
Ki [3]: 57 nM

CCCCn1c2c(cc(C(=O)NCCc3ccc(O)cc3)c1=O)CCCCCC2 [Compound 4-105]
Ki [2]: 91 nM | Ki [3]: 2.1 nM

CSC(=S)N1CC(C)(C)CSC1=Nc1ccccc1SC [Compound I-62]
melting point: 137 to 139 °C

COCC(=O)N1CC(C)(C)CSC1=Nc1ccccc1C(C)C [Compound I-93]
IC50 (human CB2R; [9]): 0.6 nM | melting point: 76 to 78 °C

CCc1ccccc1N=C1SCC(C)(C)CN1C(=S)SC [Compound I-56]
melting point: 107 to 109 °C

Cc1c(C(=O)c2cccc3ccccc23)c2cccc3c2n1[C@H](CN1CCOCC1)CO3 [WIN55212-2, reference compound]
Ki (mouse CB2 receptor; [7]): 6 nM | Antipruritic Effect (%) ([1]; 100 mg/kg (p.o.)): 70* %

CCC(C)c1ccccc1N=C1SCC(C)(C)CN1C(=O)SC (stereo not shown) [Compound I-51]
melting point: 53 to 56 °C

Cc1ccc(Oc2nc3ccccc3o2)c(=S)n1C
melting point: 245 to 247 °C

CCCCn1c2c(cc(C(=O)NCCc3ccc(N)cc3)c1=O)CCCCCC2 [Compound 4-104]
Ki [2]: 54 nM | IC50 (human CB2R): 9.8 nM | Ki [3]: 6 nM

CCSC(=O)N1CC(C)(C)CSC1=Nc1ccc(C)cc1C [Compound I-39]
IC50 (human CB2R; [9]): 13.7 nM

CCn1c(C)c(C)cc(C(=O)NCc2ccccc2)c1=O
melting point: 117 °C

CCNC(=O)N1CC(C)(C)CSC1=Nc1ccccc1C(C)C [Compound I-92]
IC50 (human CB2R; [9]): < 0.2 nM | melting point: 52 to 53 °C

C=CCSC(=S)N1CC2(CCCCC2)CSC1=Nc1ccccc1OC [II-86]
IC50 (human CB1R; [5]): 16.8 nM | IC50 (human CB2R; [6]): 1 nM | Ki (mouse CB2 receptor): 1.1 nM | Ki (mouse CB1 receptor): 12 nM | Antipruritic Effect (%) ([1]; 100 mg/kg (p.o.)): 98** % | melting point: 108.5 to 109.5 °C

CCC(C)CNC(=O)c1cc(C)c(C)n(CC2CCCCC2)c1=O (stereo not shown) [Compound 11-012]
IC50 (human CB1R; [4]): 7.8 nM

CCSC(=O)N1CCSC1=Nc1ccccc1C(C)C [Compound I-6]
Ki [2]: > 5000 nM

CSC(=S)N1CC(C)(C)CSC1=Nc1ccc(C)c(C)c1 [Compound I-74]
IC50 (human CB2R; [9]): 1.6 nM | melting point: 126 to 128 °C

CCCCn1c2c(cc(C(=O)N[C@H](CF)c3ccccc3)c1=O)CCCCCC2 [Compound 10-089]
IC50 (human CB1R; [4]): 9.4 nM

CCSC(=O)N1CC(C)(C)CSC1=Nc1ccc([N+](=O)[O-])cc1C(C)C [Compound I-46]
IC50 (human CB2R; [9]): 5.4 nM | melting point: 119 to 120 °C

CCCCn1c(C)c(C)cc(NC(=O)c2ccc(F)cc2)c1=O
melting point: 129 to 130 °C

CCCCn1c(C)c(C)cc(NC(=O)OCc2ccccc2)c1=O
melting point: 65 to 66 °C

CCCCn1c(C)c(C)cc(Oc2nc3ccccc3o2)c1=S [Compound 2-004, 1-butyl-5,6-dimethyl-3-O-(benzoxazol-2-yl)-2-thiopyridone]
Ki [3]: 101 nM

CCCCn1c2c(cc(C(=O)NCCc3ccccc3)c1=O)CCC2 [Compound 4-052]
Ki [2]: 1500 nM | Ki [3]: 24 nM

CCCCn1c2c(cc(C(=O)NCCc3ccccc3)c1=O)CCCC2 [Compound 4-002, 1-butyl-2-oxo-1,2,5,6,7,8-hexahydroquinoline-3-carboxylic acid phenethylamide]
Ki [2]: 746 nM | Ki [3]: 17 nM

CSC(=O)N1CC(C)(C)CSC1=Nc1ccccc1C(C)C [Compound I-50]
melting point: 95 to 96 °C

CSC(=S)N1CC2(CCOCC2)CSC1=Nc1ccccc1C(C)C [II-93]
melting point: 127 to 128 °C

CCCCn1c2c(cc(C(=O)N[C@H](CC)c3ccccc3)c1=O)CCCCCC2 [Compound 10-058]
IC50 (human CB1R; [4]): 2.4 nM

COc1c(Oc2nc3ccccc3o2)c(C)c(C)n(Cc2ccccc2)c1=O
melting point: 197 to 198 °C

CCCCn1c2c(cc(C(=O)NCC(C)(C)C)c1=O)CCCCCC2 [Compound 10-041]
IC50 (human CB1R; [4]): 3.5 nM

COCCn1c2c(cc(C(=O)NCc3ccccc3)c1=O)CCCCCC2 [Compound 4-301]
Ki [2]: 1770 nM | Ki [3]: 8 nM

O=C(NCc1ccccc1)c1cc2c(n(Cc3ccncc3)c1=O)CCCCCC2 [Compound 4-310]
Ki [2]: 512 nM | Ki [3]: 9 nM

CC(C)OC(=O)CSC(=S)N1CC(C)(C)CSC1=Nc1ccccc1C(C)C [II-13]
melting point: 95 to 96 °C

CCCCn1c(C)c(I)cc(C(=O)NCCc2ccccc2)c1=O [Compound 3-038]
Ki [2]: 1250 nM | IC50 (human CB2R): 28.6 nM | Ki [3]: 12 nM

Cc1cc(C(=O)NCC(C)(C)C)c(=O)n(CC2CCCCC2)c1C [Compound 11-013]
IC50 (human CB1R; [4]): 7.5 nM

CCSC(=S)N1CC(C)(C)CSC1=Nc1ccccc1C(C)C [Compound I-84]
melting point: 68 to 70 °C

CCCCn1c(C)c(C)cc(NC(=O)Nc2ccccc2Br)c1=O
melting point: 154 to 155 °C

CCCCn1c(C)c(C)cc(C(=O)NC(C)(C)c2ccccc2)c1=O [Compound 11-001]
IC50 (human CB1R; [4]): 1.2 nM

CCCc1ccccc1N=C1SCC(C)(C)CN1C(=O)SC [Compound I-49]
IC50 (human CB2R; [9]): 2.2 nM | melting point: 64 to 66 °C

C=CCSC(=S)N1CC2(CCOCC2)CSC1=Nc1ccccc1C(C)C [II-92]
melting point: 73.5 to 75 °C

C=CCSC(=S)N1CC2(CCCCC2)CSC1=Nc1ccc(CC)cc1 [II-88]
melting point: 98 to 100 °C

CCCCn1c2c(cc(NC(=O)c3ccccc3Cl)c1=O)CCCCCC2 [Compound 13-006]
IC50 (human CB1R; [4]): 1.6 nM

CCCCn1c2c(cc(C(=O)NC3CCCCC3)c1=O)CCCCCC2 [Compound 10-035]
IC50 (human CB1R; [5]): 29 nM | IC50 (human CB2R; [6]): 0.2 nM | Ki (mouse CB2 receptor; [7]): 0.1 nM | Ki (mouse CB1 receptor; [8]): 12 nM | Antipruritic Effect (%) ([1]; 100 mg/kg (p.o.)): 93** %

CCCCn1c2c(cc(C(=O)NC(C)(C)c3ccccc3)c1=O)[C@@H]1CC[C@H]2C1 [Compound 13-023]
IC50 (human CB1R; [4]): 0.3 nM
